Experimental data from PubChem BioAssay AID330 (DTP/NCI, 2004).
Where “and” joins values, the source holds several entries; their conditions need not be identical. Equal entries are not always repeated. Toxic doses and inconclusive results are not listed.

System: P388 leukemia ip, CD2F1 mice, survival T/C
Experiment: NCI In Vivo Anticancer Drug Screen. Data for tumor model P388 Leukemia (intraperitoneal) in CD2F1 (CDF1) mice
Settings: endpoint: median survival time, higher = longer survival
Method in brief: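 Mice carrying the transplanted tumor received test compound or vehicle. Survival was recorded in each group, and the value is the treated-group measurement divided by that of the vehicle-treated control group.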

[1] = dose: 50.0 mg/kg/injection, schedule: Q01DX005 (ip), vehicle: saline
[2] = dose: 6.25 mg/kg/injection, schedule: Q01DX009 (ip), vehicle: saline with Tween-80
[3] = dose: 12.5 mg/kg/injection, schedule: Q01DX009 (ip), vehicle: saline with Tween-80
[4] = dose: 50.0 mg/kg/injection, schedule: Q01DX009 (ip), vehicle: saline with Tween-80
[5] = dose: 100.0 mg/kg/injection, schedule: Q01DX009 (ip), vehicle: saline with Tween-80
[6] = dose: 50.0 mg/kg/injection, schedule: Q01DX005 (ip), vehicle: saline with Tween-80
[7] = dose: 100.0 mg/kg/injection, schedule: Q01DX005 (ip), vehicle: saline with Tween-80
[8] = dose: 200.0 mg/kg/injection, schedule: Q01DX005 (ip), vehicle: saline with Tween-80
[9] = dose: 25.0 mg/kg/injection, schedule: Q01DX009 (ip), vehicle: saline with Tween-80
[10] = dose: 50.0 mg/kg/injection, schedule: Q01DX009 (ip), vehicle: Klucel (hydroxypropylcellulose) (HPC)
[11] = dose: 100.0 mg/kg/injection, schedule: Q01DX009 (ip), vehicle: Klucel (hydroxypropylcellulose) (HPC)
[12] = dose: 200.0 mg/kg/injection, schedule: Q01DX009 (ip), vehicle: Klucel (hydroxypropylcellulose) (HPC)
[13] = dose: 200.0 mg/kg/injection, schedule: Q01DX009 (ip), vehicle: saline with Tween-80

SMILES: COc1cc2c(cc1OC)[C@H](c1cc(OC)c3c(c1)OCO3)[C@H]1C(=O)OCC1C2 (stereo not given in full)
- T/C (dose: 15.0 mg/kg/injection, schedule: Q01DX005 (ip), vehicle: saline with Tween-80): 89 % of control
- T/C (dose: 30.0 mg/kg/injection, schedule: Q01DX005 (ip), vehicle: saline with Tween-80): 88 % of control
- T/C (dose: 60.0 mg/kg/injection, schedule: Q01DX005 (ip), vehicle: saline with Tween-80): 90 % of control and 92 % of control
- T/C (dose: 120.0 mg/kg/injection, schedule: Q01DX005 (ip), vehicle: saline with Tween-80): 98 % of control
- T/C (dose: 240.0 mg/kg/injection, schedule: Q01DX005 (ip), vehicle: saline with Tween-80): 99 % of control

SMILES: CCC[C@@H]1[C@@H](CCC)N1C(=N)OCC
- T/C (dose: 12.5 mg/kg/injection, schedule: Q01DX005 (ip), vehicle: suspension in saline): 99 % of control
- T/C (dose: 25.0 mg/kg/injection, schedule: Q01DX005 (ip), vehicle: suspension in saline): 106 % of control
- T/C [1]: 103 % of control
- T/C (dose: 50.0 mg/kg/injection, schedule: Q01DX005 (ip), vehicle: suspension in saline): 106 % of control

SMILES: NC(CCCCNC=O)C(=O)O (stereo not given)
- T/C [1]: 104 % of control
- T/C (dose: 100.0 mg/kg/injection, schedule: Q01DX005 (ip), vehicle: saline): 98 % of control
- T/C (dose: 200.0 mg/kg/injection, schedule: Q01DX005 (ip), vehicle: saline): 96 % of control

SMILES: O=C1C[C@@H]2OC3=C(C(=O)CCC3)[C@@H]2O1
- T/C (dose: 60.0 mg/kg/injection, schedule: Q01DX005 (ip), vehicle: saline): 102 % of control
- T/C (dose: 120.0 mg/kg/injection, schedule: Q01DX005 (ip), vehicle: saline): 121 % of control
- T/C (dose: 240.0 mg/kg/injection, schedule: Q01DX005 (ip), vehicle: saline): 119 % of control

SMILES: O=C1Nc2ccc([N+](=O)[O-])cc2/C1=C/C(=O)c1ccccc1
- T/C (dose: 3.13 mg/kg/injection, schedule: Q01DX009 (ip), vehicle: saline with Tween-80): 101 % of control
- T/C [2]: 98 % of control
- T/C [3]: 96 % of control
- T/C [4]: 100 % of control
- T/C [5]: 108 % of control

SMILES: Cc1cc(C)c(C#N)c(SCC(=O)c2sc3c(C#N)c(C)cc(C)[n+]3c2[O-])n1
- T/C [6]: 90 % of control
- T/C [7]: 90 % of control
- T/C [8]: 95 % of control

SMILES: COC(=O)[C@@]12OC[C@]34C([C@@H](O)C1O)[C@@]1(C)CC(=O)C(O)=C(C)C1C[C@H]3OC(=O)[C@H](OC(=O)c1ccc(Cl)cc1)[C@H]42 (stereo not given in full)
- T/C (dose: 0.25 mg/kg/injection, schedule: Q01DX005 (ip), vehicle: DMSO): 112 % of control
- T/C (dose: 0.5 mg/kg/injection, schedule: Q01DX005 (ip), vehicle: DMSO): 116 % of control
- T/C (dose: 1.0 mg/kg/injection, schedule: Q01DX005 (ip), vehicle: DMSO): 113 % of control and 115 % of control
- T/C (dose: 2.0 mg/kg/injection, schedule: Q01DX005 (ip), vehicle: DMSO): 109 % of control and 118 % of control
- T/C (dose: 4.0 mg/kg/injection, schedule: Q01DX005 (ip), vehicle: DMSO): 109 % of control
- T/C (dose: 8.0 mg/kg/injection, schedule: Q01DX005 (ip), vehicle: DMSO): 110 % of control and 115 % of control
- T/C (dose: 16.0 mg/kg/injection, schedule: Q01DX005 (ip), vehicle: DMSO): 112 % of control

SMILES: COc1cccc2c1C(=O)c1c(O)c3c(c(O)c1C2=O)C[C@@](O)(C(C)NCCCO)C[C@@H]3OC1CC(N)C(O)C(C)O1 (stereo not given in full)
- T/C (dose: 0.5 mg/kg/injection, schedule: Q01DX009 (ip), vehicle: water): 122 % of control
- T/C (dose: 1.0 mg/kg/injection, schedule: Q01DX009 (ip), vehicle: water): 150 % of control
- T/C (dose: 2.0 mg/kg/injection, schedule: Q01DX009 (ip), vehicle: water): 154 % of control and 163 % of control
- T/C (dose: 4.0 mg/kg/injection, schedule: Q01DX009 (ip), vehicle: water): 163 % of control and 173 % of control
- T/C (dose: 8.0 mg/kg/injection, schedule: Q01DX009 (ip), vehicle: water): 174 % of control and 175 % of control
- T/C (dose: 16.0 mg/kg/injection, schedule: Q01DX009 (ip), vehicle: water): 201 % of control

SMILES: CCCNC(C)(C)C(SS)c1ccc(C(F)(F)F)cc1 (stereo not given)
- T/C (dose: 12.5 mg/kg/injection, schedule: Q01DX009 (ip), vehicle: other): 100 % of control
- T/C (dose: 25.0 mg/kg/injection, schedule: Q01DX009 (ip), vehicle: other): 100 % of control
- T/C (dose: 50.0 mg/kg/injection, schedule: Q01DX009 (ip), vehicle: other): 109 % of control

SMILES: CN(C)/C=N\c1ncnc2c1ncn2C1OC(CO)C(O)C1O (stereo not given)
- T/C [2]: 104 % of control
- T/C [3]: 98 % of control
- T/C [9]: 102 % of control
- T/C [4]: 99 % of control
- T/C [5]: 95 % of control

SMILES: O=C1NCCN1C(=O)Nc1ccc(Cl)c(Cl)c1
- T/C [10]: 116 % of control
- T/C [11]: 108 % of control
- T/C [12]: 110 % of control

SMILES: CC1(C(=O)O)CCC2(C(=O)O)CCC3(C)C(=CCC4C5(C)CC(O)C(O)C(C)(CO)C5CCC43C)C2C1 (stereo not given)
- T/C (dose: 6.25 mg/kg/injection, schedule: Q01DX009 (ip), vehicle: saline): 100 % of control
- T/C (dose: 12.5 mg/kg/injection, schedule: Q01DX009 (ip), vehicle: saline): 100 % of control
- T/C (dose: 25.0 mg/kg/injection, schedule: Q01DX009 (ip), vehicle: saline): 96 % of control

SMILES: CC1[C@@]2(O[C@@H]3C=C4C5CCC6Cc7nc8c(nc7C[C@@]6(C)C5C[C@H](O)[C@@]4(C)[C@]13O)CC1CCc3c(cc4c5c3C(O)C[C@H]5[C@@H](C)C3(O4)OC(C)(C)CC3O)[C@]1(C)C8)O[C@@](C)(CO)C[C@@H]2O (stereo not given in full)
- T/C (dose: 12.5 micrograms/kg/injection, schedule: Q01DX009 (ip), vehicle: saline + alcohol): 109 % of control
- T/C (dose: 25.0 micrograms/kg/injection, schedule: Q01DX009 (ip), vehicle: saline + alcohol): 107 % of control
- T/C (dose: 100.0 micrograms/kg/injection, schedule: Q01DX009 (ip), vehicle: saline + alcohol): 98 % of control

SMILES: CC(=O)OCc1ccc(O)c(C=O)c1
- T/C (dose: 12.5 mg/kg/injection, schedule: Q01DX005 (ip), vehicle: saline with Tween-80): 118 % of control
- T/C [6]: 113 % of control

SMILES: O=C([O-])c1ccccc1[O-].[Cu+2].c1ccc(-c2ccccn2)nc1
- T/C (dose: 6.25 mg/kg/injection, schedule: Q01DX005 (ip), vehicle: Klucel (hydroxypropylcellulose) (HPC)): 104 % of control
- T/C (dose: 12.5 mg/kg/injection, schedule: Q01DX005 (ip), vehicle: Klucel (hydroxypropylcellulose) (HPC)): 113 % of control

SMILES: O=c1c2ccccc2ccn1O
- T/C (dose: 50.0 mg/kg/injection, schedule: Q01DX005 (ip), vehicle: Klucel (hydroxypropylcellulose) (HPC)): 97 % of control
- T/C (dose: 100.0 mg/kg/injection, schedule: Q01DX005 (ip), vehicle: Klucel (hydroxypropylcellulose) (HPC)): 89 % of control
- T/C (dose: 200.0 mg/kg/injection, schedule: Q01DX005 (ip), vehicle: Klucel (hydroxypropylcellulose) (HPC)): 89 % of control

SMILES: CCCCC/C=C\C/C=C\CCCCCCCC(=O)O
- T/C [10]: 93 % of control
- T/C [11]: 112 % of control
- T/C [12]: 107 % of control
- T/C (dose: 400.0 mg/kg/injection, schedule: Q01DX009 (ip), vehicle: Klucel (hydroxypropylcellulose) (HPC)): 101 % of control

SMILES: CC(=O)c1c(-c2ccc(F)cc2)c(-c2ccc(F)cc2)nn(CCO)c1=O
- T/C [6]: 98 % of control
- T/C [7]: 100 % of control
- T/C [8]: 98 % of control

SMILES: N#C/C(=C1/OC(=N)C(c2c(Cl)cccc2Cl)C1=O)c1c(Cl)cccc1Cl (stereo not given)
- T/C [6]: 100 % of control
- T/C [7]: 101 % of control

SMILES: CSc1cccc(NC(=O)OCCOc2ccccc2Cl)c1
- T/C [4]: 105 % of control
- T/C [5]: 101 % of control
- T/C [13]: 100 % of control

SMILES: CCCCCCN(CCCCCC)CC(O)c1ccc(Cl)c2ccccc12 (stereo not given)
- T/C [6]: 115 % of control
- T/C [7]: 101 % of control
- T/C [8]: 92 % of control

SMILES: COC1/C=C/OC2(C)Oc3c(C)c(O)c4c(O)c(c(/C=N/N5C(C)CN(Cc6ccc(C)cc6)CC5C)c(O)c4c3C2=O)NC(=O)C(C)=C/C=C/C(C)C(O)C(C)C(O)C(C)C(OC(C)=O)C1C (stereo not given)
- T/C [4]: 97 % of control
- T/C [5]: 96 % of control
- T/C [13]: 103 % of control

SMILES: COC(=O)C1c2ccccc2C(C(=O)OC)C(C(=O)OC)C(C(=O)OC)c2ccccc21 (stereo not given)
- T/C (dose: 100.0 mg/kg/injection, schedule: Q04DX003 (ip), vehicle: Klucel (hydroxypropylcellulose) (HPC)): 102 % of control
- T/C (dose: 200.0 mg/kg/injection, schedule: Q04DX003 (ip), vehicle: Klucel (hydroxypropylcellulose) (HPC)): 102 % of control
- T/C (dose: 400.0 mg/kg/injection, schedule: Q04DX003 (ip), vehicle: Klucel (hydroxypropylcellulose) (HPC)): 99 % of control

SMILES: O=C([Se][Se]C(=O)c1ccc(Cl)cc1)c1ccc(Cl)cc1
- T/C [3]: 99 % of control
- T/C [9]: 100 % of control
- T/C [4]: 100 % of control
- T/C [5]: 98 % of control
